Target: ABCB1 (P-glycoprotein) (Homo sapiens, UniProt P08183)
Assay: Vanadate-sensitive ABCB1 ATPase stimulation in cell membranes (PREDEASY kit); also [3H]-paclitaxel accumulation/efflux in KB-C2 cells
Type: biochemical

Sequence of ABCB1 (P-glycoprotein) (P08183 whole entry): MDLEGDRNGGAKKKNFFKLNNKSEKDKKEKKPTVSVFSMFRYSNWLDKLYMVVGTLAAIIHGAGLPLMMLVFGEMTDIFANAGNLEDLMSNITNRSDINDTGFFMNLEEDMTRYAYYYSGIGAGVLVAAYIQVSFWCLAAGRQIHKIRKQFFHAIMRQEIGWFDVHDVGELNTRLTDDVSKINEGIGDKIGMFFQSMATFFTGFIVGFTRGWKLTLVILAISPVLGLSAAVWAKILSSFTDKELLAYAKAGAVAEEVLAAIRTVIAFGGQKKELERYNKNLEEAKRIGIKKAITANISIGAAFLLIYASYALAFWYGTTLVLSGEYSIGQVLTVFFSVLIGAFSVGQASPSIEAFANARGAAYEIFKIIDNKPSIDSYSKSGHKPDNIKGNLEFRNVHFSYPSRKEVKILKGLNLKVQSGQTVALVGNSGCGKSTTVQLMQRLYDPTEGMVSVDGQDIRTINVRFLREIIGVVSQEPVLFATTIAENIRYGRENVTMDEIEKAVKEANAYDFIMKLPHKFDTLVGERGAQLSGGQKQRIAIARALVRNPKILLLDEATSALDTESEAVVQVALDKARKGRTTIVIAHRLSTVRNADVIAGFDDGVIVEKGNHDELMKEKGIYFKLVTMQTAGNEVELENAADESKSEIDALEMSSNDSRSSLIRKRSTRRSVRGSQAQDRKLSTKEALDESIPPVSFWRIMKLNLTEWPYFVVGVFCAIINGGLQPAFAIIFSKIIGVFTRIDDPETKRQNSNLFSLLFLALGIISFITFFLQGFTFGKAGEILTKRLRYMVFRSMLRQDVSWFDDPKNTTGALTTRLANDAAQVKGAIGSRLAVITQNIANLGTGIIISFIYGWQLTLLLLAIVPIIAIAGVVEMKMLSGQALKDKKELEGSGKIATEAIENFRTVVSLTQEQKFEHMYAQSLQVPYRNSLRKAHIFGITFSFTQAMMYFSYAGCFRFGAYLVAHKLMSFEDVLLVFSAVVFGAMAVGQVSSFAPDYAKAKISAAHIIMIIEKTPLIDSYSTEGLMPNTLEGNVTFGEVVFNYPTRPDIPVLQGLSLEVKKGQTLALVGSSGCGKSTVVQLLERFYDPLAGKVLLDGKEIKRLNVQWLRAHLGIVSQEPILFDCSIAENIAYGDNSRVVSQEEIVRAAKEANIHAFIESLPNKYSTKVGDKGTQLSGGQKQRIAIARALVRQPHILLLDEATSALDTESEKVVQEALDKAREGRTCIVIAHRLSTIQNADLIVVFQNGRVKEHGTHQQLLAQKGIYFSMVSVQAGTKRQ

## COc1ccc2cc1Oc1ccc(cc1)C[C@H]1c3cc(c(OC)cc3CCN1C)Oc1c(OC)c(OC)cc3c1[C@H](C2)N(C)CC3 [tetrandrine]
  EC50: 0.47 µM

Source: publication PMC6930469, “Tetrandrine Interaction with ABCB1 Reverses Multidrug Resistance in Cancer Cells Through Competition with Anti-Cancer Drugs Followed by Downregulation of ABCB1 Expression” (Molecules, 2019)
